Consider three molecules from US7517658B2, “Methods for preparing compositions using a SNORF33 receptor” (H. Lundbeck A/S, priority 1999, dated 2009).

As usually defined, the EC50 is the midpoint of the concentration-response curve.

What all share (format): cell-based
Assay [1] has as its target T1, rSNORF33 (Rattus norvegicus, UniProt Q923Y9). Briefly: Cl- currents in Xenopus oocytes expressing rSNORF33 and CFTR (voltage clamp). Conditions: for EC50: oocytes expressing rSNORF33 and CFTR, -80 mV, mean ± S.E.M., read-out: Calculated EC50, Cl- current. Here is the method: Female Xenopus laevis (Xenopus-1, Ann Arbor, Mich.) were anesthetized in 0.2% tricain (3-aminobenzoic acid ethyl ester, Sigma Chemical Corp.) and a portion of ovary was removed using aseptic technique (Quick and Lester, 1994). Oocytes were defolliculated, using 3 mg/ml collagenase (Worthington Biochemical Corp., Freehold, N.J.) in a solution containing 82.5 mM NaCl, 2 mM KCl, 1 mM MgCl2 and 5 mM HEPES, pH 7.5, and injected (Nanoject, Drummond Scientific, Broomall, Pa.) 24 h later with 50-70 nl of individual mRNAs or mRNA mixtures (see below).
Elevation of intracellular cAMP is monitored in oocytes by expression of the cystic fibrosis transmembrane conductance regulator (CFTR) whose Cl^−-selective pore opens in response to phosphorylation by protein kinase A (Riordan, 1993). To prepare RNA transcripts for expression in oocytes, a template was created by PCR using 5′ and 3′ primers derived from the published sequence of the CFTR gene (Riordan, 1993). The 5′ primer included the sequence coding for T7 polymerase so that transcripts could be generated directly from the PCR products without cloning. Oocytes were injected with 10 ng of CFTR mRNA in addition to 10-15 ng mRNA for SNORF33. Electrophysiological recordings were made after a 2-3 day incubation at 18° C.
Dual electrode voltage clamp (“GeneClamp”, Axon Instruments Inc., Foster City, Calif.) was performed using 3 M KCl-filled glass microelectrodes having resistances of 1-3 Mohms. Unless otherwise specified, oocytes were voltage clamped at a holding potential of −80 mV. During recordings, oocytes were bathed in continuously flowing (1-3 ml/min) medium containing 96 mM NaCl, 2 mM KCl, 1.8 mM CaCl2, 1 mM MgCl2, and 5 mM HEPES, pH 7.5 (ND96). […] Experiments were carried out at room temperature. All values are expressed as mean±standard error of the mean.

In assay [2] the target is T1, rSNORF33. As to the kind of experiment: Intracellular cAMP release in rSNORF33-transfected COS-7 cells. Conditions: transiently transfected COS-7 cells; 3–8 experiments; read-out: Mean EC50 ± S.E.M., stimulation of rSNORF33 measured by intracellular cAMP release. The arrangement: expressed in transfected cells; host or cells: COS-7 (transient). Here is the method: (§1) The receptor-mediated stimulation or inhibition of cyclic AMP (cAMP) formation may be assayed in cells expressing the mammalian receptors. Cells are plated in 96-well plates or other vessels and preincubated in a buffer such as HEPES buffered saline (NaCl (150 mM), CaCl2 (1 mM), KCl (5 mM), glucose (10 mM)) supplemented with a phosphodiesterase inhibitor such as 5 mM theophylline, with or without protease inhibitor cocktail (For example, a typical inhibitor cocktail contains 2 μg/ml aprotinin, […] leupeptin, and 10 μg/ml phosphoramidon.) for 20 min at 37° C., in 5% CO2. Test compounds are added with or without […] forskolin and incubated for an additional 10 min at 37° C. The medium is then aspirated and the reaction stopped by the addition of 100 mM HCl or other methods. The plates are stored at 4° C. for 15 min, and the cAMP content in the stopping solution is measured by radioimmunoassay. Radioactivity may be quantified using a gamma counter equipped with data reduction software. Specific modifications may be performed to optimize the assay for the receptor or to alter the detection method of cAMP.
(§2) COS-7 cells were transiently transfected with rSNORF33 gene using the calcium phosphate method and plated in 96-well plates. 48 hours after transfection, cells were washed twice with Dulbecco's phosphate buffered saline (PBS) supplemented with 10 mM HEPES, 10 mM glucose, 5 mM theophylline and 10 μM pargyline and were incubated in the same buffer for 20 min at 37° C., in […] 5% CO2. Test compounds were added and cells were incubated for an additional 10 min at 37° C. The medium was then aspirated and the reaction stopped by the addition of 100 mM HCl. The plates were stored at −20° C. for 2-5 days. For cAMP measurement, plates were thawed and the cAMP content in each well was measured by radioimmunoassay cAMP Scintillation Proximity Assay (Amersham Pharmacia Biotech). Radioactivity was quantified using microbeta Trilux counter (Wallac).

A further assay addresses T2, hSNORF33 (Homo sapiens, UniProt Q96RJ0).
T2 sequence (Q96RJ0 1-339): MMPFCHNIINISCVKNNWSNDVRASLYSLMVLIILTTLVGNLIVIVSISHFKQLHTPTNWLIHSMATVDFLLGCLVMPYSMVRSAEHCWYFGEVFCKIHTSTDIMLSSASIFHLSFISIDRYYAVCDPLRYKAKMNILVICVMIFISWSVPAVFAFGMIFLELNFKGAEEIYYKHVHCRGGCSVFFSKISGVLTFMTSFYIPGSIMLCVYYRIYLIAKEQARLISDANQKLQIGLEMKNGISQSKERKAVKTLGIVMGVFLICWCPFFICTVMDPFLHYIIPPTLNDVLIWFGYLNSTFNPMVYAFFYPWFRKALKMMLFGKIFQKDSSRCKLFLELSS
Briefly: Intracellular cAMP release in human SNORF33-transfected COS-7 cells. Conditions: transiently transfected COS-7 cells; read-out: Mean EC50 ± S.D.M., stimulation of human SNORF33 measured by intracellular cAMP release. Set-up: expressed in transfected cells; host or cells: COS-7 (transient). Here is the method: as §1, §2

T1 sequence (Q923Y9 whole entry): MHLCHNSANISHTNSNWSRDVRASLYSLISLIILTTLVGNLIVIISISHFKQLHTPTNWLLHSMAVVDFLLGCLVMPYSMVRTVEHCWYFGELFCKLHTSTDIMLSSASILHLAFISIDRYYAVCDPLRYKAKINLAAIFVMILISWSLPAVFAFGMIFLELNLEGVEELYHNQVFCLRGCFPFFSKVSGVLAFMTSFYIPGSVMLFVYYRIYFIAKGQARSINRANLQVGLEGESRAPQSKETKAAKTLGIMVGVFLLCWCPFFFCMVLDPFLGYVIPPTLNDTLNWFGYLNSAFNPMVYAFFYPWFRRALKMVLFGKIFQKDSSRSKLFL

For `NCC(O)c1ccc(O)cc1` (stereo not drawn) [Octopamine (OCT), Octopamine], on rSNORF33 [1] (at 100 μM), the “Cl- currents elicited” value is reported as “elicited Cl^− currents”. The 50% effective concentration (EC50) at rSNORF33 [1] is 635 ± 151 nM; on rSNORF33 [2], 135 ± 54 nM; at hSNORF33 it was 4090 ± 95 nM.

With `NCCc1c[nH]c2ccccc12` [Tryptamine (T), Tryptamine], at rSNORF33 [1] (1-100 μM), the “Cl- currents elicited” value is “produced this activity”. Further, the concentration for a half-maximal effect (EC50) on rSNORF33 [1] is 54 ± 10 nM; at rSNORF33 [2], 17 ± 4 nM; at hSNORF33 it was 24000 nM.

For the molecule `NCCc1ccc(O)cc1` [Tyramine (TYR), Tyramine], the “Cl- currents elicited” value at rSNORF33 [1] (1-100 μM) is “produced this activity”. The EC50 was 37 ± 4.4 nM on rSNORF33 [1], 9 ± 6 nM on rSNORF33 [2] and 214 ± 85 nM at hSNORF33.
